# Laboratory results as given in the supplement of paper PMC10702517.
# ± gives the standard deviation.
# What was measured:
# [1] = chemical recovery by SPE of plasma after PDMS sampling; higher = better extraction; conditions: pooled human plasma, extraction method: HLB SPE of plasma after PES
# [2] = chemical recovery into PDMS from spiked human plasma; higher = better extraction; conditions: pooled human plasma, extraction method: PES with PDMS
# [3] = chemical recovery from spiked human plasma; higher = better extraction; conditions: pooled human plasma
# [4] = extraction method: PES+SPE (3 d PDMS equilibration then HLB SPE)
# [5] = extraction method: SPE only (HLB 96-well)
# [6] = extraction method: SPE only (HLB 96-well), PES comparison experiment
# [7] = extraction method: solvent precipitation (ACN + hexane)
# 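For chemical recovery by SPE of plasma after PDMS sampling in this document: over 400 spiked chemicals quantified by LC-HRMS or GC-HRMS via internal standard calibration, recovery relative to spike mix added to unspiked plasma extract to correct matrix effects.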
Compound,chemical recovery by SPE of plasma ([1]; equilibration time (d): 1) [%],chemical recovery into PDMS ([2]; equilibration time (d): 1) [%],chemical recovery into PDMS ([2]; equilibration time (d): 3) [%],chemical recovery into PDMS ([2]; equilibration time (d): 6) [%],"chemical recovery [3, 4] [%]","chemical recovery [3, 5] [%]",chemical recovery by SPE of plasma ([1]; equilibration time (d): 3) [%],chemical recovery by SPE of plasma ([1]; equilibration time (d): 6) [%],"chemical recovery [3, 6] [%]","chemical recovery [3, 7] [%]"
O=S(=O)(c1ccccc1)c1ccccc1 [Diphenylsulfone],5.48 ± 3.7,56.9 ± 12,–,–,–,0.293 ± 0.035,9.14 ± 0.92,7.53 ± 2.3,15.5 ± 1.1,16.4 ± 3.6
CC[C@H](C)[C@H]1O[C@]2(C=C[C@@H]1C)C[C@@H]1C[C@@H](C/C=C(\C)[C@@H](O[C@H]3C[C@H](OC)[C@@H](O[C@H]4C[C@H](OC)[C@@H](NC)[C@H](C)O4)[C@H](C)O3)[C@@H](C)/C=C/C=C3\CO[C@@H]4[C@H](O)C(C)=C[C@@H](C(=O)O1)[C@]34O)O2 [Emamectin B1a],9.54 ± 2.3,0.154 ± 0.044,0.139 ± 0.047,0.0633 ± 0.056,–,–,9.04 ± 3,8.2 ± 4.6,29.7 ± 9.1,69 ± 6.4
CCOC1Oc2ccc(OS(C)(=O)=O)cc2C1(C)C (configuration not stated) [Ethofumesate],0.62 ± 1.1,40.5 ± 3.4,42.3 ± 2.6,44 ± 0.63,43.9 ± 5.2,48.8 ± 1.2,1.94 ± 1.7,0.896 ± 1.6,52.8 ± 9.5,–
CCOP(=S)(OCC)SCn1nnc2ccccc2c1=O [Ethyl azinphos],2.46 ± 0.6,39.8 ± 4.6,41.4 ± 0.64,42.5 ± 2.1,–,–,2.42 ± 0.18,1.19 ± 0.21,46.3 ± 6,69.5 ± 2.2
S=C1NCCN1 [Ethylenethiourea],–,–,–,0.013 ± 0.022,0.046 ± 0.019,0.261 ± 0.34,0.0882 ± 0.15,0.15 ± 0.26,–,–
CC(Cc1ccc(C(C)(C)C)cc1)CN1CCCCC1 (configuration not stated) [Fenpropidin],0.126 ± 0.086,–,0.0302 ± 0.026,–,–,–,0.0736 ± 0.023,0.0409 ± 0.011,44.5 ± 7.7,105 ± 9.7
CC(Cc1ccc(C(C)(C)C)cc1)CN1C[C@@H](C)O[C@@H](C)C1 (some centres not stated) [Fenpropimorph],0.124 ± 0.08,0.0443 ± 0.064,0.0146 ± 0.013,0.0427 ± 0.056,–,–,0.066 ± 0.064,0.0142 ± 0.017,43.4 ± 8,80.2 ± 11
N#Cc1nn(-c2c(Cl)cc(C(F)(F)F)cc2Cl)c(N)c1C(F)(F)F [Fipronil desulfinyl],17.6 ± 2.5,33.7 ± 0.57,36.3 ± 2.9,34.8 ± 0.66,–,30.2 ± 6.1,18 ± 1.9,13.8 ± 0.85,67.3 ± 7.3,53.7 ± 4.2
N#Cc1nn(-c2c(Cl)cc(C(F)(F)F)cc2Cl)c(N)c1SC(F)(F)F [Fipronil sulfide],21.2 ± 6.2,22.6 ± 0.34,25.1 ± 1.1,24.4 ± 0.83,–,30.6 ± 3.4,19.9 ± 0.92,15.3 ± 3,64 ± 7,49.8 ± 3.9
N#Cc1nn(-c2c(Cl)cc(C(F)(F)F)cc2Cl)c(N)c1S(=O)(=O)C(F)(F)F [Fipronil sulfone],41.6 ± 14,27.8 ± 0.78,32.2 ± 2.1,31 ± 0.79,–,36.7 ± 3.6,34.1 ± 7.7,30.8 ± 9.5,67.9 ± 8.3,67.4 ± 7.9
N#Cc1nn(-c2c(Cl)cc(C(F)(F)F)cc2Cl)c(N)c1[S+]([O-])C(F)(F)F (configuration not stated) [Fipronil],19 ± 4.9,25.5 ± 0.91,30.2 ± 2.3,29 ± 0.92,–,31.6 ± 8.2,21.5 ± 4.3,15.4 ± 2.5,64.5 ± 6.8,40.3 ± 3.4
CC(C)N(C(=O)COc1nnc(C(F)(F)F)s1)c1ccc(F)cc1 [Flufenacet],0.558 ± 0.061,50 ± 1.1,54.1 ± 4.8,51.2 ± 6,–,–,0.583 ± 0.14,0.269 ± 0.043,52.3 ± 7.7,62.5 ± 3.1

# Now from value to molecule, other results behind:
chemical recovery by SPE of plasma ([1]; equilibration time (d): 1) [%],chemical recovery into PDMS ([2]; equilibration time (d): 1) [%],chemical recovery into PDMS ([2]; equilibration time (d): 3) [%],chemical recovery into PDMS ([2]; equilibration time (d): 6) [%],"chemical recovery [3, 4] [%]","chemical recovery [3, 5] [%]",Compound,chemical recovery by SPE of plasma ([1]; equilibration time (d): 3) [%],chemical recovery by SPE of plasma ([1]; equilibration time (d): 6) [%],"chemical recovery [3, 6] [%]","chemical recovery [3, 7] [%]"
3.56 ± 3.1,42.8 ± 4.3,44.9 ± 3.4,43.2 ± 1.9,60.1 ± 20,35.7 ± 4,CNC(=O)/C(=N/OC)c1ccccc1COc1cc(C)ccc1C [Dimoxystrobin],9.02 ± 0.83,7.35 ± 0.63,50.3 ± 9.1,72.7 ± 5.8
0.988 ± 0.82,3.85 ± 3.4,5.97 ± 3,6.08 ± 2.5,–,7.45 ± 4.7,CCCCCCCCc1cccc(Nc2ccccc2)c1CCCCCCCC [Dioctyldiphenylamine],0.992 ± 0.41,0.785 ± 0.37,–,–
0.353 ± 0.014,0.00464 ± 0.0041,0.0114 ± 0.013,–,0.391 ± 0.13,44.7 ± 3,CN(C)CCOC(c1ccccc1)c1ccccc1 [Diphenhydramine],0.464 ± 0.19,0.236 ± 0.039,50.3 ± 5.5,52.4 ± 4.6
–,33.8 ± 1.2,–,40.4 ± 12,–,20.4 ± 5.3,c1ccc(Cc2ccccc2)cc1 [Diphenylmethane],10.1 ± 5.8,5.98 ± 9.4,–,–
8.44 ± 0.83,32.6 ± 1.8,36.3 ± 1.6,37 ± 2,56.2 ± 5,48.9 ± 3.2,CN(C)C(=O)Nc1ccc(Cl)c(Cl)c1 [Diuron],7.52 ± 0.91,4.83 ± 0.33,55.9 ± 7.4,74.6 ± 2.9
0.166 ± 0.13,1.2 ± 0.66,1.32 ± 1,1.41 ± 0.46,–,29 ± 0.98,CC1CN(C2CCCCCCCCCCC2)CC(C)O1 (configuration not stated) [Dodemorph],0.11 ± 0.031,0.044 ± 0.0048,44.3 ± 4.7,73 ± 8.6
3.88 ± 0.83,41.9 ± 2.5,45.7 ± 3,44.9 ± 1.4,–,–,C[C@]12CCC(=O)C=C1[C@@H]1C[C@@H]1[C@H]1[C@@H]3[C@@H]4C[C@@H]4[C@@]4(CCC(=O)O4)[C@@]3(C)CC[C@@H]12 [Drospirenone],2.16 ± 0.41,1.04 ± 0.16,42.6 ± 8.3,–
0.574 ± 0.23,0.444 ± 0.073,0.712 ± 0.075,0.469 ± 0.24,–,–,CC(C)(C)c1ccc(C(=O)CCCN2CCC(OC(c3ccccc3)c3ccccc3)CC2)cc1 [Ebastin],–,–,36.2 ± 9,–
4.94 ± 4.3,44.7 ± 4.4,46.6 ± 4.5,47.4 ± 0.83,–,27.1 ± 5.3,O=C1Nc2ccc(Cl)cc2C(C#CC2CC2)(C(F)(F)F)O1 (configuration not stated) [Efavirenz],6.96 ± 1.3,1.44 ± 2.5,38.7 ± 7.3,41.4 ± 3.2
1.27 ± 0.14,26 ± 6,27.7 ± 4.9,29.8 ± 3.4,25.6 ± 9.8,38.6 ± 1.8,CCOC(=O)c1ccc(N(C)C)cc1 [Ethyl 4-(dimethylamino)benzoate],1.79 ± 0.23,1.11 ± 0.13,37.5 ± 6.9,60.4 ± 5.1
9.28 ± 1.5,32.6 ± 3,37.9 ± 1.4,38.5 ± 0.91,–,–,CC(C)(C)NC(=O)[C@H]1CC[C@H]2[C@@H]3CC[C@H]4NC(=O)C=C[C@]4(C)[C@H]3CC[C@]12C [Finasteride],5.81 ± 1.2,3.05 ± 0.42,47.9 ± 6.3,–
42.2 ± 4.3,2.22 ± 0.25,4.26 ± 1.1,4.9 ± 1,43.8 ± 3.3,–,OC(Cn1cncn1)(Cn1cncn1)c1ccc(F)cc1F [Fluconazole],42.2 ± 4.8,36.6 ± 3.1,47 ± 6.6,77.1 ± 3.1
43.1 ± 2.7,0.511 ± 0.092,2.26 ± 0.88,2.3 ± 1.2,44.1 ± 3.4,44.8 ± 8,CC1CCc2cc(F)cc3c(=O)c(C(=O)O)cn1c23 (configuration not stated) [Flumequine],43.8 ± 3.9,40.3 ± 3.2,49.8 ± 7.5,72.1 ± 3.2
